Source: ChEMBL document CHEMBL5352439, “Design, synthesis, biological evaluation and molecular docking study of novel urea-based benzamide derivatives as potent poly(ADP-ribose) polymerase-1 (PARP-1) inhibitors” (Eur J Med Chem, 2022)
pIC50: −log10 of the molar value.

Legend:
[1] = tested on: HeLa; experiment: Antiproliferative activity against human HeLa cells assessed as inhibition of cell growth incubated for 48 hrs by MTT assay; type: functional, cell-based
[2] = tested on: A-375; experiment: Antiproliferative activity against human A-375 cells assessed as inhibition of cell growth at 20 uM incubated for 48 hrs by MTT assay; type: functional
[3] = tested on: HCT-116; experiment: Inhibition of cell migration in human HCT-116 cells at 10 uM incubated for 24 hrs by wound healing assay (reference value: 32.0 %); type: functional
[4] = tested on: HCT-116; experiment: Induction of apoptosis in human HCT-116 cells assessed as necrotic cells at 5 uM incubated for 48 hrs by Annexin-V and PI staining based flow cytometry analysis (reference value: 0.08%); type: functional
[5] = tested on: HCT-116; experiment: Inhibition of colony formation in human HCT-116 cells measured every 3 days for 14 days by crystal violet staining based assay; type: functional, cell-based; settings: dose 1.88-15 µM, time 14.0 day
[6] = tested on: HCT-116; experiment: Potency index, ratio of olaparib IC50 to test compound IC50 for antiproliferative activity against human HCT-116 cells; type: functional
[7] = tested on: MDA-MB-231; experiment: Antiproliferative activity against human MDA-MB-231 cells assessed as inhibition of cell growth at 20 uM incubated for 48 hrs by MTT assay; type: functional
[8] = tested on: HCT-116; experiment: Induction of cell cycle arrest in human HCT-116 cells assessed as accumulation of cells at G2/M phase at 10 to 40 uM incubated for 48 hrs by propidium iodide staining based flow cytometry analysis (reference value: 27.38 %); type: functional; settings: dose 10-40 µM
[9] = molecular target: Poly [ADP-ribose] polymerase 1 (Homo sapiens, UniProt P09874); experiment: Inhibition of PARP1 (unknown origin) by ELISA
Poly [ADP-ribose] polymerase 1, sequence (P09874 whole entry): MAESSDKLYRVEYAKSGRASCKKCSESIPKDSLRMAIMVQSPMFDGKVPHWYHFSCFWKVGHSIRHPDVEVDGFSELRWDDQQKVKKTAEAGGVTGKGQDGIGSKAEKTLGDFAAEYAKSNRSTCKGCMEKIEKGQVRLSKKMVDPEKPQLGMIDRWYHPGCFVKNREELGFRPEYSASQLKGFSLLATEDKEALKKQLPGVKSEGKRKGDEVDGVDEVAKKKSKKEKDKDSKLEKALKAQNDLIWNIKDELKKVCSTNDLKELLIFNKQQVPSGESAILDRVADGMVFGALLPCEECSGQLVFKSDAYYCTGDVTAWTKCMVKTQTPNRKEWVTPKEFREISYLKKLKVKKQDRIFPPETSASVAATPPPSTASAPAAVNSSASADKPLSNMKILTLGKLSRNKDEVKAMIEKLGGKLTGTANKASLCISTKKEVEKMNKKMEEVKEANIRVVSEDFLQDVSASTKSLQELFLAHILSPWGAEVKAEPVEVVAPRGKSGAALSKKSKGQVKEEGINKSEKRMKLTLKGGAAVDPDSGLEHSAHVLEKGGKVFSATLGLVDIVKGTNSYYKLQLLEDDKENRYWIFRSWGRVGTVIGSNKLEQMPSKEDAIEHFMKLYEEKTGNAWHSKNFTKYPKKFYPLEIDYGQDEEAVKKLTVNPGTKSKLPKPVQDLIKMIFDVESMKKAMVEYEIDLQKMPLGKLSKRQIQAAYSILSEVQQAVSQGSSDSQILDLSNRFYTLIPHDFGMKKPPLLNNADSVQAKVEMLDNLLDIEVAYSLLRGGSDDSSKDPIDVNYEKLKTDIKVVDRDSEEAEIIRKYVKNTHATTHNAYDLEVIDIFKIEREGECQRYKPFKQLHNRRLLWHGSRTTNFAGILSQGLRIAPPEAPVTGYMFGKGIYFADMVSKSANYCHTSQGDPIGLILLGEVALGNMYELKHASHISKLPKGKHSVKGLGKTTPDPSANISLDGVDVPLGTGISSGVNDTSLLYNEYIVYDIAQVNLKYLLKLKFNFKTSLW

[10] = tested on: MDA-MB-231; experiment: Antiproliferative activity against human MDA-MB-231 cells assessed as inhibition of cell growth incubated for 48 hrs by MTT assay; type: functional, cell-based; settings: MDA-MB-231, 48 h
[11] = tested on: HCT-116; experiment: Induction of apoptosis in human HCT-116 cells assessed as viable cells at 5 uM incubated for 48 hrs by Annexin-V and PI staining based flow cytometry analysis (reference value: 98.50%); type: functional; settings: read-out: Activity
[12] = tested on: A549; experiment: Antiproliferative activity against human A549 cells assessed as inhibition of cell growth incubated for 48 hrs by MTT assay; type: functional, cell-based; settings: A549, 48 h
[13] = tested on: HCT-116; experiment: Inhibition of colony formation in human HCT-116 cells at 7.5 uM measured every 3 days for 14 days by crystal violet staining based assay; type: functional; settings: HCT-116, 336 h, time 14 day
[14] = tested on: HeLa; experiment: Antiproliferative activity against human HeLa cells assessed as inhibition of cell growth at 20 uM incubated for 48 hrs by MTT assay; type: functional
[15] = tested on: HCT-116; experiment: Induction of apoptosis in human HCT-116 cells assessed as necrotic cells at 20 uM incubated for 48 hrs by Annexin-V and PI staining based flow cytometry analysis (reference value: 0.08%); type: functional
[16] = tested on: A-375; experiment: Antiproliferative activity against human A-375 cells assessed as inhibition of cell growth incubated for 48 hrs by MTT assay; type: functional, cell-based; settings: A-375, 48 h
[17] = tested on: HCT-116; experiment: Induction of apoptosis in human HCT-116 cells assessed as early apoptotic cells at 5 uM incubated for 48 hrs by Annexin-V and PI staining based flow cytometry analysis (reference value: 1.26%); type: functional
[18] = tested on: HCT-116; experiment: Induction of cell cycle arrest in human HCT-116 cells assessed as decrease in cells at G0/G1 phase at 10 to 40 uM incubated for 48 hrs by propidium iodide staining based flow cytometry analysis (reference value: 63.67 %); type: functional; design: scale not given: the % may be the effect or the level left; settings: dose 10-40 µM
[19] = tested on: HCT-116; experiment: Induction of apoptosis in human HCT-116 cells assessed as late apoptotic cells at 10 uM incubated for 48 hrs by Annexin-V and PI staining based flow cytometry analysis (reference value: 0.06%); type: functional
[20] = tested on: HCT-116; experiment: Induction of apoptosis in human HCT-116 cells assessed as early apoptotic cells at 10 uM incubated for 48 hrs by Annexin-V and PI staining based flow cytometry analysis (reference value: 1.26%); type: functional
[21] = tested on: HCT-116; experiment: Induction of apoptosis in human HCT-116 cells assessed as viable cells at 20 uM incubated for 48 hrs by Annexin-V and PI staining based flow cytometry analysis (reference value: 98.50%); type: functional; settings: read-out: Activity
[22] = tested on: HCT-116; experiment: Inhibition of cell migration in human HCT-116 cells at 20 uM incubated for 48 hrs by wound healing assay (reference value: 42.8 %); type: functional
[23] = tested on: L02; experiment: Antiproliferative activity against human L02 cells assessed as inhibition of cell growth […] incubated for 48 hrs by MTT assay; type: functional, cell-based; settings: L02, 48 h
[24] = tested on: A549; experiment: Antiproliferative activity against human A549 cells assessed as inhibition of cell growth at 20 uM incubated for 48 hrs by MTT assay; type: functional
[25] = tested on: HCT-116; experiment: Induction of apoptosis in human HCT-116 cells assessed as early apoptotic cells at 20 uM incubated for 48 hrs by Annexin-V and PI staining based flow cytometry analysis (reference value: 1.26%); type: functional
[26] = tested on: HCT-116; experiment: Inhibition of cell migration in human HCT-116 cells at 20 uM incubated for 24 hrs by wound healing assay (reference value: 32.0 %); type: functional
[27] = tested on: HCT-116; experiment: Inhibition of cell migration in human HCT-116 cells at 10 uM incubated for 48 hrs by wound healing assay (reference value: 42.8 %); type: functional
[28] = tested on: HCT-116; experiment: Induction of apoptosis in human HCT-116 cells assessed as late apoptotic cells at 5 uM incubated for 48 hrs by Annexin-V and PI staining based flow cytometry analysis (reference value: 0.06%); type: functional
[29] = tested on: HCT-116; experiment: Induction of apoptosis in human HCT-116 cells assessed as viable cells at 10 uM incubated for 48 hrs by Annexin-V and PI staining based flow cytometry analysis (reference value: 98.50%); type: functional; settings: read-out: Activity
[30] = tested on: HCT-116; experiment: Inhibition of colony formation in human HCT-116 cells at 10 uM measured every 3 days for 14 days by crystal violet staining based assay; type: functional; settings: HCT-116, 336 h, time 14 day
[31] = tested on: HCT-116; experiment: Induction of apoptosis in human HCT-116 cells assessed as late apoptotic cells at 20 uM incubated for 48 hrs by Annexin-V and PI staining based flow cytometry analysis (reference value: 0.06%); type: functional
[32] = tested on: HCT-116; experiment: Antiproliferative activity against human HCT-116 cells assessed as inhibition of cell growth at 20 uM incubated for 48 hrs by MTT assay; type: functional
[33] = tested on: HCT-116; experiment: Induction of apoptosis in human HCT-116 cells assessed as necrotic cells at 10 uM incubated for 48 hrs by Annexin-V and PI staining based flow cytometry analysis (reference value: 0.08%); type: functional

## NC(=O)c1ccccc1OCc1cccc(NC(=O)Nc2cccc(Br)c2)c1
[1]
  pIC50: 4.88
[2]
  inhibition at 20 µM: 80.8%
[3]
  inhibition at 10 µM: 23%
[4]
  Activity: 0.55%
[5]
  inhibition: Dose-Dependent Effect
[6]
  Ratio IC50: 8.93
[7]
  inhibition at 20 µM: 78.8%
[8]
  Activity: 34.14%
[9]
  pIC50: 8.22
[10]
  pIC50: 4.85
[11]
  viability at 5 µM: 94.6%
[12]
  pIC50: 4.58
[13]
  inhibition at 7.5 µM: 100%
[14]
  inhibition at 20 µM: 71.2%
[15]
  Activity: 0.15%
[16]
  pIC50: 4.71
[17]
  Activity: 4.09%
[18]
  Activity: 55.17%
[19]
  Activity: 2.44%
[20]
  Activity: 11.56%
[21]
  viability at 20 µM: 58.5%
[22]
  inhibition at 20 µM: 19.3%
[23]
  pIC50: 4.15
[24]
  inhibition at 20 µM: 49.3%
[25]
  Activity: 40.51%
[26]
  inhibition at 20 µM: 12%
[27]
  inhibition at 10 µM: 25.1%
[28]
  Activity: 0.77%
[29]
  viability at 10 µM: 85%
[30]
  inhibition at 10 µM: 100%
[31]
  Activity: 0.89%
[32]
  inhibition at 20 µM: 90.7%
[33]
  Activity: 0.95%
